From patent US9603889B2, “IAP antagonists” (BRISTOL-MYERS SQUIBB COMPANY, priority 2012, dated 2017)
Where two headings read alike, the source gives them in different places.

Molecular target: XIAP BIR3 (N-His-Tb-BIR3(241-356, XIAP)) (Homo sapiens (Human), UniProt P98170)
Type: binding
Conditions: read-out: XIAP BIR3 FPA IC50
[1] = 130 nM N-His-Tb-BIR3(241-356, XIAP), 1.4 nM fluoresceinated modified SMAC peptide, 60 minutes room temperature

XIAP BIR3 (N-His-Tb-BIR3(241-356, XIAP)), sequence (P98170 241-356): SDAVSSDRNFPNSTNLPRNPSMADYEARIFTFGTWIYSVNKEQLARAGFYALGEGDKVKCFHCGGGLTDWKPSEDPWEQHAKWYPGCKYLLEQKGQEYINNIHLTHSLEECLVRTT

Structure (SMILES) | IC50 [1] | IC50
CN[C@@H](C)C(=O)N[C@H](C(=O)N1Cc2ccccc2C[C@H]1CN(Cc1cccc2ccccc12)C(=O)c1ccc(C(=O)N[C@H]2C[C@@H](C(=O)N[C@@H]3CCCc4ccccc43)N(C(=O)[C@@H](NC(=O)[C@H](C)NC)C(C)(C)C)C2)cc1)C(C)(C)C [Example 34, N^1-(((S)-2-((S)-3,3-Dimethyl-2-((S)-2-(methylamino)propanamido)butanoyl)-1,2,3,4-tetrahydro-isoquinolin-3-yl)methyl)-N^4-((3S,5S)-1-((S)-3,3-dimethyl-2-((S)-2-(methylamino)propanamido)butanoyl)-5-(((R)-1,2,3,4-tetrahydro-naphthalen-1-yl)carbamoyl)pyrrolidin-3-yl)-N^1-(naphthalen-1-ylmethyl) terephthalamide] | 160 nM | 
CCC[C@H](c1ccccc1)N(Cc1ccc(C(=O)N[C@H]2C[C@@H](C(=O)N[C@@H]3CCCc4ccccc43)N(C(=O)[C@@H](NC(=O)[C@H](C)NC)C(C)(C)C)C2)cc1)C(=O)[C@@H]1Cc2ccccc2CN1C(=O)[C@@H](NC(=O)[C@H](C)NC)C(C)(C)C [Example 7, (S)-2-((S)-3,3-Dimethyl-2-((S)-2-(methylamino)propanamido)butanoyl)-N-(4-(((3S,5S)-1-((S)-3,3-dimethyl-2-((S)-2-(methylamino)propanamido)butanoyl)-5-(((R)-1,2,3,4-tetrahydronaphthalen-1-yl)carbamoyl)pyrrolidin-3-yl)carbamoyl)benzyl)-N-((R)-1-phenylbutyl)-1,2,3,4-tetrahydroisoquinoline-3-carboxamide] | 190 nM | 
CN[C@@H](C)C(=O)N[C@H](C(=O)N1Cc2ccccc2C[C@H]1CN(C(=O)c1ccc(C(=O)N[C@H]2C[C@@H](C(=O)N[C@@H]3CCCc4ccccc43)N(C(=O)[C@@H](NC(=O)[C@H](C)NC)C(C)(C)C)C2)cc1)[C@H](C)c1ccc2ccccc2c1)C(C)(C)C [Example 31, N^1-(((S)-2-((S)-3,3-Dimethyl-2-((S)-2-(methylamino)propanamido)butanoyl)-1,2,3,4-tetrahydro-isoquinolin-3-yl)methyl)-N^4-((3S,5S)-1-((S)-3,3-dimethyl-2-((S)-2-(methyl-amino)propanamido)butanoyl)-5-(((R)-1,2,3,4-tetrahydro-naphthalen-1-yl)carbamoyl)pyrrolidin-3-yl)-N^1-((R)-1-(naphthalen-2-yl)ethyl) terephthalamide] | 250 nM | 
CN[C@@H](C)C(=O)N[C@H](C(=O)N1CC(NC(=O)c2cccc(CN(C(=O)[C@@H]3Cc4ccccc4CN3C(=O)[C@@H](NC(=O)[C@H](C)NC)C(C)(C)C)C(COC)c3ccccc3)c2)C[C@H]1C(=O)NC1CCCc2ccccc21)C(C)(C)C (stereo in doubt) [Example 39, (S)-2-((S)-3,3-Dimethyl-2-((S)-2-(methylamino)propanamido)butanoyl)-N-(3-(((3S,5S)-1-((S)-3,3-dimethyl-2-((S)-2-(methylamino)propanamido)butanoyl)-5-(((R)-1,2,3,4-tetrahydronaphthalen-1-yl)carbamoyl)pyrrolidin-3-yl)carbamoyl)benzyl)-N-((S)-2-methoxy-1-phenylethyl)-1,2,3,4-tetrahydroisoquinoline-3-carboxamide] | 80 nM | 
CN[C@@H](C)C(=O)N[C@H](C(=O)N1C[C@@H](NC(=O)c2ccc(CN(C(=O)[C@@H]3Cc4ccccc4CN3C(=O)[C@@H](NC(=O)[C@H](C)NC)C(C)(C)C)[C@H](C)c3ccccc3Cl)cc2)C[C@H]1C(=O)N[C@@H]1CCCc2ccccc21)C(C)(C)C [Example 5, (S)-N-((R)-1-(2-Chlorophenyl)ethyl)-2-((S)-3,3-dimethyl-2-((S)-2-(methylamino)propanamido)butanoyl)-N-(4-(((3S,5S)-1-((S)-3,3-dimethyl-2-((S)-2-(methylamino)propanamido)butanoyl)-5-(((R)-1,2,3,4-tetrahydronaphthalen-1-yl)carbamoyl)pyrrolidin-3-yl)carbamoyl)benzyl)-1,2,3,4-tetrahydroisoquinoline-3-carboxamide] | 220 nM | 
CN[C@@H](C)C(=O)N[C@H](C(=O)N1C[C@@H](NC(=O)c2ccc(CN(CCc3ccccc3)C(=O)[C@@H]3Cc4ccccc4CN3C(=O)[C@@H](NC(=O)[C@H](C)NC)C(C)(C)C)cc2)C[C@H]1C(=O)N[C@@H]1CCCc2ccccc21)C(C)(C)C [Example 2, (S)-2-((S)-3,3-Dimethyl-2-((S)-2-(methylamino)propanamido)butanoyl)-N-(4-(((3S,5S)-1-((S)-3,3-dimethyl-2-((S)-2-(methylamino)propanamido)butanoyl)-5-(((R)-1,2,3,4-tetrahydronaphthalen-1-yl)carbamoyl)pyrrolidin-3-yl)carbamoyl)benzyl)-N-phenethyl-1,2,3,4-tetrahydroisoquinoline-3-carboxamide] | 30 nM | 
CN[C@@H](C)C(=O)N[C@H](C(=O)N1CC(NC(=O)CN(C(=O)[C@@H]2Cc3ccccc3CN2C(=O)[C@@H](NC(=O)[C@H](C)NC)C(C)(C)C)C(COC)c2ccccc2)C[C@H]1C(=O)NC1CCCc2ccccc21)C(C)(C)C (stereo in doubt) [Example 40, (S)-2-((S)-3,3-Dimethyl-2-((S)-2-(methylamino)propanamido)butanoyl)-N-(2-(((3S,5S)-1-((S)-3,3-dimethyl-2-((S)-2-(methylamino)propanamido)butanoyl)-5-(((R)-1,2,3,4-tetrahydronaphthalen-1-yl)carbamoyl)pyrrolidin-3-yl)amino)-2-oxoethyl)-N-((S)-2-methoxy-1-phenylethyl)-1,2,3,4-tetrahydroisoquinoline-3-carboxamide] |  | 60 nM
CCOc1ccccc1[C@@H](C)N(Cc1ccc(C(=O)N[C@H]2C[C@@H](C(=O)N[C@@H]3CCCc4ccccc43)N(C(=O)[C@@H](NC(=O)[C@H](C)NC)C(C)(C)C)C2)cc1)C(=O)[C@@H]1Cc2ccccc2CN1C(=O)[C@@H](NC(=O)[C@H](C)NC)C(C)(C)C [Example 29, (S)-2-((S)-3,3-Dimethyl-2-((S)-2-(methylamino)propanamido)butanoyl)-N-(4-(((3S,5S)-1-((S)-3,3-dimethyl-2-((S)-2-(methyl-amino)propanamido)butanoyl)-5-(((R)-1,2,3,4-tetra-hydronaphthalen-1-yl)carbamoyl)pyrrolidin-3-yl)carbamoyl)benzyl)-N-((R)-1-(2-ethoxyphenyl)ethyl)-1,2,3,4-tetrahydro-isoquinoline-3-carboxamide] | 160 nM | 
CN[C@@H](C)C(=O)N[C@H](C(=O)N1C[C@@H](NC(=O)c2ccc(CN(C(=O)[C@@H]3Cc4ccccc4CN3C(=O)[C@@H](NC(=O)[C@H](C)NC)C(C)(C)C)[C@H](C)c3ccccc3OC)cc2)C[C@H]1C(=O)N[C@@H]1CCCc2ccccc21)C(C)(C)C [Example 24, (S)-2-((S)-3,3-Dimethyl-2-((S)-2-(methylamino)propanamido)butanoyl)-N-(4-(((3S,5S)-1-((S)-3,3-dimethyl-2-((S)-2-(methylamino)propanamido)butanoyl)-5-(((R)-1,2,3,4-tetrahydro-naphthalen-1-yl)carbamoyl)pyrrolidin-3-yl)carbamoyl)benzyl)-N-((R)-1-(2-methoxyphenyl)ethyl)-1,2,3,4-tetrahydro-isoquinoline-3-carboxamide] | 130 nM | 
CN[C@@H](C)C(=O)N[C@H](C(=O)N1CC(NC(=O)C2CC2CN(C(=O)[C@@H]2Cc3ccccc3CN2C(=O)[C@@H](NC(=O)[C@H](C)NC)C(C)(C)C)[C@H](C)c2ccccc2F)C[C@H]1C(=O)NC1CCCc2ccccc21)C(C)(C)C (stereo partly drawn) [Example 42, (3S)-2-((S)-3,3-Dimethyl-2-((S)-2-(methylamino)propanamido)butanoyl)-N-((2-(((3S,5S)-1-((S)-3,3-dimethyl-2-((S)-2-(methylamino)propanamido)butanoyl)-5-(((R)-1,2,3,4-tetrahydronaphthalen-1-yl)carbamoyl)pyrrolidin-3-yl)carbamoyl)cyclopropyl)methyl)-N-((R)-1-(2-fluorophenyl)ethyl)-1,2,3,4-tetrahydroisoquinoline-3-carboxamide] | 70 nM | 
CNC(C)C(=O)N[C@H](C(=O)N1C[C@@H](NC(=O)c2ccc(C(=O)N(C[C@@H]3Cc4ccccc4CN3C(=O)[C@@H](NC(=O)[C@H](C)NC)C(C)(C)C)[C@H](C)Cc3ccccc3F)cc2)C[C@H]1C(=O)N[C@@H]1CCCc2ccccc21)C(C)(C)C (stereo in doubt) [Example 17, N^1-(((S)-2-((S)-3,3-dimethyl-2-((S)-2-(methylamino)propanamido)butanoyl)-1,2,3,4-tetra-hydroisoquinolin-3-yl)methyl)-N^4-((3S,5S)-1-((S)-3,3-dimethyl-2-((S)-2-(methyl-amino)propanamido)butanoyl)-5-(((R)-1,2,3,4-tetrahydro-naphthalen-1-yl)carbamoyl)pyrrolidin-3-yl)-N^1-((R)-1-(2-fluorophenyl)propan-2-yl) terephthalamide] | 100 nM | 
CN[C@@H](C)C(=O)N[C@H](C(=O)N1Cc2ccccc2C[C@H]1CN(C(=O)c1ccc(C(=O)N[C@H]2C[C@@H](C(=O)N[C@@H]3CCCc4ccccc43)N(C(=O)[C@@H](NC(=O)[C@H](C)NC)C(C)(C)C)C2)cc1)[C@H](C)c1ccccc1F)C(C)(C)C [Example 37, N^1-(((S)-2-((S)-3,3-Dimethyl-2-((S)-2-(methylamino)propanamido)butanoyl)-1,2,3,4-tetrahydro-isoquinolin-3-yl)methyl)-N^4-((3S,5S)-1-((S)-3,3-dimethyl-2-((S)-2-(methylamino)propanamido)butanoyl)-5-(((R)-1,2,3,4-tetrahydro-naphthalen-1-yl)carbamoyl)pyrrolidin-3-yl)-N^1-((R)-1-(2-fluorophenyl)ethyl) terephthalamide] | 230 nM | 
